The values that follow come from the Deep4Chem optical property database.

The structures appear in SMILES notation.

The data set can be described thus: solvent given as SMILES.

In the case of `CC[n+]1c(-c2ccccc2)c2cc(N)ccc2c2ccc(NC(N)=[NH2+])cc21`, where the note is “in O”, the emission maximum is reported as 590 nm.
Take `COc1ccc(-c2c3ccc([nH]3)c3nc(c(-c4ccc(C#N)cc4)c4ccc([nH]4)c4ccc([nH]4)c(-c4ccc(OC)cc4)c4ccc2o4)C=C3)cc1`: the emission maximum (in C1CCOC1) stood at 736 nm, the emission maximum (in Cc1ccccc1) is on record as 724 nm and the emission maximum (in c1ccccc1) is given as 724 nm.
`CN(C)c1cccc(/C=C/c2ncc(-c3ccc(OCc4ccccc4)c(OCc4ccccc4)c3)o2)c1` showed an emission maximum (in ClCCl) of 490 nm.
Turning to `CN(C)c1ccc(-c2ncnc3ccccc23)cc1`, the emission maximum came to 421 nm (in C1CCCCC1); 483 nm (in C1CCOC1); 529 nm (in CC#N); 543 nm (in CS(C)=O); 490 nm (in ClCCl).
Take `c1ccc(N(c2ccccc2)c2ccc(-c3ncnc4ccccc34)cc2)cc1`: the emission maximum is 445 nm (in C1CCCCC1); 508 nm (in C1CCOC1); 559 nm (in CC#N); 563 nm (in CS(C)=O); 528 nm (in ClCCl).
`N#Cc1ccc(Oc2ccc3c4c(cccc24)C(=O)N(CCO)C3=O)cc1` came in with an emission maximum (in ClC(Cl)Cl) of 413 nm.
In the case of `[O-][n+]1c(/C=C/c2ccc3ccccc3c2)nc(N2CCOCC2)c2c1CCCC2`, the emission maximum (in ClCCl) amounted to 546 nm.
Where the note is “in C1COCCO1”, `c1ccc(-c2nc(-c3ccc(-c4ccc(-c5ccc(-c6nc(-c7ccccc7)c(-c7ccccc7)o6)cc5)cc4)cc3)oc2-c2ccccc2)cc1` showed an emission maximum of 426 nm.
Consider `CCC1(CC)c2ccccc2-c2c1c1c(c3c2C(CC)(CC)c2cc(B(c4c(C)cc(C)cc4C)c4c(C)cc(C)cc4C)ccc2-3)C(CC)(CC)c2ccccc2-1`, for which the emission maximum (in C1CCOC1) is given as 385 nm; the emission maximum (in CC#N) was 404 nm; the emission maximum (in CC(C)=O) turned out to be 395 nm; the emission maximum (in CCCCCC) stood at 372 nm; the emission maximum (in ClC(Cl)Cl) was determined as 387 nm.
Under “in ClCCl”, `CN(C)c1ccc(/C=C/c2cc(/C=C/c3ccc(N(C)C)cc3)ncn2)cc1` came in with an emission maximum of 530 nm.
For the compound `Nc1ncnc2c1c(-c1ccc3ccccc3c1)nn2[C@H]1C[C@H](O)[C@@H](CO)O1`, the emission maximum (in C1COCCO1) came to 359 nm; the emission maximum (in CC#N) amounted to 360 nm; the emission maximum (in CC(C)O) is on record as 363 nm; the emission maximum (in CCO) worked out at 364 nm; the emission maximum (in CCOC(C)=O) was 358 nm; the emission maximum (in CN(C)C=O) was 361 nm. Further, the emission maximum is recorded as 362 nm (in CO), 363 nm (in CS(C)=O), 372 nm (in OCC(O)CO) and 365 nm (in OCCO).
`C#CCNC1=C2C(C)=CC(C)=[N+]2[B-](F)(F)n2c(C)cc(C)c21`: the emission maximum (in C1CCCCC1) amounted to 501.5 nm; the emission maximum (in CC(C)=O) was found to be 496 nm; the emission maximum (in CCOC(C)=O) is on record as 497 nm; the emission maximum (in CO) was 496 nm; the emission maximum (in OCC(F)(F)F) was determined as 494.5 nm.
In the case of `COc1cc(C2=CC3=C(c4c(C)cc(C)cc4C)c4cc(-c5cc(OC)c(OC)c(OC)c5)c(-c5cc(OC)c(OC)c(OC)c5)n4[B-](F)(F)[N+]3=C2c2cc(OC)c(OC)c(OC)c2)cc(OC)c1OC`, the emission maximum reads like this: (in C1CCCCC1) 670 nm; (in C1CCOC1) 662 nm; (in CC#N) 628 nm; (in Cc1ccccc1) 677 nm; (in ClCCl) 651 nm.
`CCCCCCn1c(=O)c2c3oc4ccccc4oc3c3c(=O)n(CCCCCC)c(=O)c3c2c1=O`: the emission maximum (in ClCCl) turned out to be 487 nm.
Consider `Cc1cccc2[n+]1[B-](F)(F)n1c(c3cccc4cccc1c43)=N2`, for which the emission maximum by setting is: (in C1CCOC1) 496 nm; (in CC#N) 495 nm; (in CCCCCC) 494 nm; (in Cc1ccccc1) 498 nm; (in ClCCl) 521 nm.
Under “in ClCCl”, `CCCCCCOc1ccc(-c2ccc(/C=C/c3cc(/C=C/c4ccc(-c5ccc(OCCCCCC)cc5)cc4)ncn3)cc2)cc1` showed an emission maximum of 483 nm.
